Entries after “also recorded” stand apart in the source; their conditions may differ. Where two headings read alike, the source gives them in different places. Marks after values point to notes of the source that are not given here.
Columns and labels:
[1] = humans, cited from earlier work
zebrafish embryos = assay: Zebrafish embryo test (ZFET); format: in vivo, Danio rerio; conditions: for Dysmorphogenic embryos / Morphological score: 50 hpf
Method: The day before the test, adult male and female zebrafish were transferred (1:1) to breeding tanks (Aquaneering, San Diego, California). Artificial plants and marbles were used as spawning substrate. Spawning and fertilization took place within 30 min after the onset of light in the morning. Eggs were collected and extensively cleaned with ISO-standard 7346 water diluted 1:5 using deionized water. Fertilized eggs were selected under a dissection stereomicroscope (Motic SMZ168, Motic China group, LTD., China). The eggs presenting overt anomalies like asymmetries, formation of vesicles or damaged membranes were discarded.
Exposure and evaluation of eggs was performed as described before with slight variations. At 2 hours post-fertilization (hpf) fertilized eggs were selected and transferred to 6-well plates (Greiner Bio-one, Germany). Ten embryos were randomly distributed into wells and filled with 5 mL of freshly prepared test solutions. TCBZ, TCBZSO, ABZ and ABZSO were dissolved in DMSO and subsequently diluted in 0.3x Danieau’s buffer to a final DMSO concentration of 0.05% (v/v). Embryos were incubated at 26 ± 1°C with a dark-light cycle of 10–14 h for 48 h. Embryolethality was determined at 8 hpf on the basis of egg coagulation, at 26 hpf by the absence of tail detachment or somites formation, and at 50 hpf by the absence of heartbeat. Developmental and teratogenic effects were assessed at 50 hpf by the total morphological score described in [32].
The working concentrations for ZFET experiments were 0.1 μM, 0.5 μM, 1 μM, 2.5 μM and 5 μM for TCBZ studies and 0.5 μM, 1 μM, 2.5 μM, 5 μM, 10 μM and 50 μM for TCBZSO. The experiments with ABZ were performed including concentrations of 0.025 μM, 0.05 μM, 0.1 μM, 0.3 μM and 0.5 μM and for ABZSO they included 1 μM, 6 μM, 12 μM, 25 μM and 50 μM.

[2] = tested on: mouse embryos at the one-cell stage; assay: Preimplantation whole embryo culture (preWEC); parameters: species or system B6CBAF1 mice; conditions: for preWEC LOAEC (lethality): GD 0 to GD 4
Method: Female mice (6–12 weeks old) were superovulated by intraperitoneal injections of 5 IU of pregnant mare’s serum gonadotropin (Intervet, Spain) and 5 IU of human chorionic gonadotropin (Farma-Lepori, Spain), 48 h apart, and mated with adult males (2:1). Embryos at the one-cell stage were obtained 24 h after the second injection by tearing the oviducts in Hepes-buffered Chatot Ziomek Bavister medium with 150 U/ml hyaluronidase (HCZB) to dissociate the cumulus cells. Denuded embryos were then washed in HCZB and cultured for 96 h in drops of culture medium, potassium simplex optimized medium (KSOM) under oil at 37°C and 5% CO2, with or without the compounds of study. TCBZ and TCBZSO dissolved in DMSO were diluted in KSOM medium and the final DMSO concentration in the culture medium was […]. Control embryos were cultured in the presence of […]. Embryos were observed under the stereomicroscope every 24 h to assess if they were progressing normally until the blastocyst stage or, otherwise, they were arrested in a previous developmental stage. In each observation the number of embryos at the correct developmental stage (two-cells at 24 h, four-cells at 48 h, morula at 72 h and blastocyst at 96 h) were counted.
TCBZ and TCBZSO concentration ranges for the preWEC study were selected based on the results of the ZFET. The tested concentrations for this technique were 1 μM, 3 μM and 10 μM for TCBZ studies and 3 μM, 10 μM, 30 μM and 100 μM for TCBZSO studies.

CSc1nc2cc(Cl)c(Oc3cccc(Cl)c3Cl)cc2[nH]1 [TCBZ, 5-chloro-6-(2,3-dichlorophenoxy)-2-(methylthio)benzimidazole]
Cmax ([1]; therapeutical dose of 10 mg/kg TCBZ, reviewed by 22, read-out: TCBZ Cmax in plasma): 1.16 µM
Frequency of dysmorphogenesis: Developmental delay (zebrafish embryos; 0.1 µM): 6.7%
Frequency of dysmorphogenesis: Flexion (zebrafish embryos; 0.1 µM): 3.3%
Frequency of dysmorphogenesis: Head-body pigmentation (zebrafish embryos; 0.1 µM): 6.7%
Lethality (zebrafish embryos; 0.1 μM, 2-50 hpf): 0%
Dysmorphogenic embryos (zebrafish embryos; 0.1 μM): 6.7%
Morphological score (zebrafish embryos; 0.1 μM): 34.8 ± 1.8
Frequency of dysmorphogenesis: Cardiac oedema (zebrafish embryos; 0.5 µM): 13.3%
Lethality (zebrafish embryos; 0.5 μM, 2-50 hpf): 0%
Dysmorphogenic embryos (zebrafish embryos; 0.5 μM): 13.3%
Morphological score (zebrafish embryos; 0.5 μM): 34.8 ± 0.0
Adverse effects in zebrafish embryos (zebrafish embryos; 1 μM): did not present any adverse effects
Frequency of dysmorphogenesis: Brain necrosis (zebrafish embryos; 1 μM): 10%
Frequency of dysmorphogenesis: Cardiac oedema (zebrafish embryos; 1 μM): 10%
Frequency of dysmorphogenesis: Flexion (zebrafish embryos; 1 μM): 6.7%
Lethality (zebrafish embryos; 1 μM, 2-50 hpf): 0%
Dysmorphogenic embryos (zebrafish embryos; 1 μM): 13.3%
Morphological score (zebrafish embryos; 1 μM): 35.8 ± 0.4
Frequency of dysmorphogenesis: Developmental delay (zebrafish embryos; 2.5 µM): 50%
Frequency of dysmorphogenesis: Flexion (zebrafish embryos; 2.5 µM): 20%
Frequency of dysmorphogenesis: Head-body pigmentation (zebrafish embryos; 2.5 µM): 50%
Lethality (zebrafish embryos; 2.5 μM, 2-50 hpf): 0%
Dysmorphogenic embryos (zebrafish embryos; 2.5 μM): 60 ^* %
Morphological score (zebrafish embryos; 2.5 μM): 33.0 ± 3.4
Lethality (zebrafish embryos; 5 μM, 2-50 hpf): 100 ^* %
ZFET LOAEC dysmorphogenesis (zebrafish embryos; 2-50 hpf): 2.5 µM
ZFET LOAEC embryonic differentiation (total morphological score) (zebrafish embryos; 2-50 hpf): 2.5 μM
ZFET LOAEC lethality (zebrafish embryos; 2-50 hpf): 5 µM
Lethality 2-cells 24 h ([2]; 1 μM): 4.2%
Lethality 4-cells 48 h ([2]; 1 μM): 8.3%
Lethality Blastocyst 96 h ([2]; 1 μM): 18.8%
Lethality Morula 72 h ([2]; 1 μM): 8.3%
Adverse effects in preimplantation embryos ([2]; 3 μM): did not produce any significant effect
Lethality 2-cells 24 h ([2]; 3 μM): 6.3%
Lethality 4-cells 48 h ([2]; 3 μM): 6.3%
Lethality Blastocyst 96 h ([2]; 3 μM): 20.8%
Lethality Morula 72 h ([2]; 3 μM): 10.4%
Lethality 2-cells 24 h ([2]; 10 μM): 18.4 ^* %
Lethality 4-cells 48 h ([2]; 10 μM): 24.5 ^* %
Lethality Blastocyst 96 h ([2]; 10 μM): 36.7%
Lethality Morula 72 h ([2]; 10 μM): 24.5 ^* %
preWEC LOAEC (lethality) [2]: 10 µM
Lethal concentration in preimplantation embryos, times higher than in vivo relevant concentrations ([2]; preWEC): 10 times

C[S+]([O-])c1nc2cc(Oc3cccc(Cl)c3Cl)c(Cl)cc2[nH]1 (stereo not drawn) [TCBZSO, Triclabendazole sulfoxide]
Cmax ([1]; 10 mg/kg TCBZ, depending on concomitant food intake, reviewed by 22, 10 mg/kg, read-out: TCBZSO Cmax in plasma): 38.6 µM
Cmax ([1]; 10 mg/kg TCBZ, calculated from ref 43, read-out: TCBZSO Cmax in plasma): 26.6 µM
Lethality (zebrafish embryos; 0.5 μM, 2-50 hpf): 17%
Dysmorphogenic embryos (zebrafish embryos; 0.5 μM): 0%
Morphological score (zebrafish embryos; 0.5 μM): 36.0 ± 0.0
Lethality (zebrafish embryos; 1 μM, 2-50 hpf): 10%
Dysmorphogenic embryos (zebrafish embryos; 1 μM): 0%
Morphological score (zebrafish embryos; 1 μM): 36.0 ± 0.0
Lethality (zebrafish embryos; 2.5 μM, 2-50 hpf): 20%
Dysmorphogenic embryos (zebrafish embryos; 2.5 μM): 0%
Morphological score (zebrafish embryos; 2.5 μM): 36.0 ± 0.0
Lethality (zebrafish embryos; 5 μM, 2-50 hpf): 7%
Dysmorphogenic embryos (zebrafish embryos; 5 μM): 0%
Morphological score (zebrafish embryos; 5 μM): 36.0 ± 0.0
Lethality (zebrafish embryos; 10 μM, 2-50 hpf): 35 ^* %
Dysmorphogenic embryos (zebrafish embryos; 10 μM): 0%
Morphological score (zebrafish embryos; 10 μM): 36.0 ± 0.0
Lethality (zebrafish embryos; 50 μM, 2-50 hpf): 100 ^* %
ZFET LOAEC dysmorphogenesis (zebrafish embryos; 2-50 hpf): No dysmorphogenesis were observed; also recorded: not dysmorphogenic
ZFET LOAEC lethality (zebrafish embryos; 2-50 hpf): 10 µM
ZFET NOAEC (zebrafish embryos; 2-50 hpf): 5 µM
Embryolethal concentration, times lower than ABZSO concentrations killing the embryos (zebrafish embryos; ZFET): five
Embryolethal concentration, times lower than ABZSO concentrations producing malformations (zebrafish embryos; ZFET): 2.5 times
Adverse effects in preimplantation embryos ([2]; 3 μM): did not induce adverse effects
Lethality 2-cells 24 h ([2]; 3 μM): 4.2%
Lethality 4-cells 48 h ([2]; 3 μM): 14.6%
Lethality Blastocyst 96 h ([2]; 3 μM): 31.3%
Lethality Morula 72 h ([2]; 3 μM): 16.7%
Lethality 2-cells 24 h ([2]; 10 μM): 24.5 ^* %
Lethality 4-cells 48 h ([2]; 10 μM): 30.6 ^* %
Lethality Blastocyst 96 h ([2]; 10 μM): 55.1 ^* %
Lethality Morula 72 h ([2]; 10 μM): 36.7 ^* %
Lethality 2-cells 24 h ([2]; 30 μM): 24.5 ^* %
Lethality 4-cells 48 h ([2]; 30 μM): 79.6 ^* %
Lethality Blastocyst 96 h ([2]; 30 μM): 98 ^* %
Lethality Morula 72 h ([2]; 30 μM): 95.9 ^* %
Lethality 2-cells 24 h ([2]; 100 μM): 100 ^* %
Lethality 4-cells 48 h ([2]; 100 μM): 100 ^* %
Lethality Blastocyst 96 h ([2]; 100 μM): 100 ^* %
Lethality Morula 72 h ([2]; 100 μM): 100 ^* %
preWEC LOAEC (lethality) [2]: 10 µM

— paper PMC4368200, “Triclabendazole Sulfoxide Causes Stage-Dependent Embryolethality in Zebrafish and Mouse In Vitro” (PLoS ONE, 2015)
